Data taken from article PMC4890880 (ACS infectious diseases, 2016).
Like-named read-outs stand apart in the source and are kept apart here.

Columns and labels:
[1] = tested on: HepG2-A16-CD81EGFP cells; conditions: human, 50 uM
[2] = tested on: Plasmodium berghei (Pb-Luc) exoerythrocytic-stage parasites; experiment: microbe, parasite or virus in culture
[3] = tested on: HepG2-A16-CD81EGFP cells; experiment: cells; conditions: Homo sapiens, HepG2, read-out: % inhibition
[4] = read-out: Inhibition% @ 50 uM rep1
[5] = read-out: Inhibition% @ 50 uM rep2

Row | SMILES | HepG2 Tox% @ 50 uM rep1 [1] [%] | inhibition at 50 µM [2, 4] [%] | inhibition at 50 µM [2, 5] [%] | inhibition at 50 µM [3] [%] | HepG2 Tox% @ 50 uM rep2 [1] [%]
1 | COc1ccc(-c2cc3c(nn2)-c2ccccc2C3=O)cc1 [MMV666026] | 21 | 61 | 71 | 21.5 | 
2 | COCCNCC(O)Cn1c2ccc(Cl)cc2c2cc(Cl)ccc21 (stereo not drawn) [MMV019017] |  | 103 | 102 | 96.7 | 99
3 | CN(C)c1ccc(N=Cc2ccc(N3CCOCC3)cc2)cc1 [MMV073843] | -8 | 88 | 83 | -8.32 | 
4 | CCOC(=O)C1=C(C)N=c2sc(=Cc3cc(Cl)ccc3O)c(=O)n2C1c1ccc(OC)cc1 (stereo not drawn) [MMV665971] | 100 | 103 | 104 | 99.7 | 
5 | COc1ccc(Nc2nc(NCc3ccccc3)c3ccccc3n2)cc1 [MMV000963] |  | 103 | 106 | 99.3 | 100
6 | CCOc1ccc(N2C(N)=NC(N)=NC2(C)C)cc1 [MMV667486] | -13 | 21 | 22 | -13.4 | 
7 | CCOc1cc2c(cc1OCC)C(c1cc(Cl)c(O)c(OCC)c1)NCC2 (stereo not drawn) [MMV000481] | 20 | 73 | 75 | 20.4 | 
8 | CCC(c1ccccc1)c1nn2c(-c3cccs3)nnc2s1 (stereo not drawn) [MMV665876] |  | 99 | 103 | 93.6 | 96
9 | CN(C)c1ccc(N2C(N)=NC(N)=NC2(C)C)cc1 [MMV667487] | -9 | 71 | 82 | -8.72 | 
10 | CCOC(=O)C1=C(C)N=c2sc(=Cc3ccccc3O)c(=O)n2C1c1ccc(OC)c2ccccc12 (stereo not drawn) [MMV666604] | -8 | 53 | 33 | -7.73 | 
11 | OC(CNC1CCCCC1)Cn1c2ccccc2c2ccccc21 (stereo not drawn) [MMV009063] |  | 104 | 105 | 98.6 | 101
12 | COc1ccc2nc(C)cc(Nc3ccc(Cl)cc3)c2c1 [MMV007875] |  | 99 | 101 | 94.8 | 99
13 | CCC(C)NCC(O)(c1ccc(Cl)cc1)c1ccc(Cl)cc1 (stereo not drawn) [MMV665928] |  | 104 | 106 | 99.2 | 102
14 | CCOc1ccc(-n2cc(-c3ccccc3)c3c(SCc4cc(C)ccc4C)ncnc32)cc1 [MMV085471] | -12 | 11 | -7 | -12.2 | 
15 | Clc1ccc2c(N3CCCC3)ccnc2c1 [MMV007363] |  | 91 | 94 | 39.1 | 
16 | O=C(Cc1ccccc1)NC(c1ccc(Cl)cc1)c1c(O)ccc2ccccc12 (stereo not drawn) [MMV665972] |  | 101 | 101 | 97.4 | 
17 | CC1(c2ccccc2)Nc2ccccc2-c2nc3ccccc3n21 (stereo not drawn) [MMV396715] |  | 104 | 106 | 98.6 | 102
18 | CCOc1cccc2sc(N(Cc3cccnc3)C(=O)C3CCCCC3)nc12 [MMV001230] |  | 102 | 103 | 97.3 | 99
19 | COc1ccc(CN2CCN(Cc3ccccc3)CC2)c(O)c1 [MMV665944] |  | 69 | 72 | 85.9 | 
20 | CCCCCCC(O)(c1ccc(F)cc1)C(CN1CCOCC1)c1ccccc1 (stereo not drawn) [MMV000621] |  | 104 | 103 | 98.1 | 
21 | CCCCCCc1cc2cc(-c3nc4ccccc4[nH]3)c(=Nc3ccccc3C)oc2cc1O [MMV666597] |  | 102 | 103 | 85.4 | 
22 | O=C(NC1CCN(Cc2ccccc2)CC1)c1cc2nc(-c3ccc(Cl)s3)cc(C(F)(F)F)n2n1 [MMV396635] | -30 | 7.6 | 24 | -29.6 | 
23 | COc1ccc(CN2CCCC(C(=O)c3ccc(C(F)(F)F)cc3)C2)c(O)c1 (stereo not drawn) [MMV666060] |  | 104 | 104 | 94.3 | 
24 | O=C1c2ccccc2C2=Nc3ccccc3SC(c3cccc(F)c3)C12 (stereo not drawn) [MMV006389] |  | 102 | 103 | 96.2 | 
25 | COc1ccc(CCNC(=O)c2cc(S(=O)(=O)N3CC(C)CC(C)C3)ccc2Sc2ccc(F)cc2)cc1OC (stereo not drawn) [MMV007557] | -12 | 19 | 15 | -11.7 | 
